Measured values from US6906237B2, “Vivo assay for anti angiogenic compounds” (priority 2001, dated 2005).
“Also recorded” adds a separate entry of the source.

Experiments:
[1] = test system: host murine blood vessels; experiment: Host vessel invasion of Matrigel implants in SCID mice without human EC; type: in vivo; details: FGF-2 alone in Matrigel, no HDMEC
Method: (§1) This procedure is based on a modification of the mouse angiogenesis model previously described^41. Two-three week old male or female SCID mice (Taconic, Germantown, N.Y.) were used as hosts for all implants. Primary HDMEC and HDMEC-T were harvested, washed twice and re-suspended in serum-free EGM-2 basal medium at the concentration of 1×10^5/μl. Ten μl of cells were mixed with 0.5 ml of Matrigel on ice and the mixture was implanted in the ventral midline thoracic tissue of each mouse by subcutaneous injection using a #25 needle. Up to three separate injections could be performed on a single mouse. For some experiments, recombinant human VEGF165 (2 μg/ml) (R&D systems, Minneapolis, Minn.) or bovine FGF-2 (150 ng/ml) (R&D systems, Minneapolis, Minn.) were added to the mixture. When tumor cells (HT1080 and 293, ATCC) or primary human dermal fibroblasts^38 were injected, the procedure remained the same except basal D-MEM medium replaced EGM-2.
Matrigel implants were removed at 1, 2, 4 and 6 wk following xenografting, fixed in 10% buffered formalin overnight, paraffin-embedded and sectioned. H&E stained thin sections were prepared at Pan-insular Histopathology laboratory (Los Gatos, Calif.). […] For micromorphometry, 5 separate 20× fields were randomly selected per tissue section and the number of annular structures were counted and averaged. […]

[2] = test system: HDMEC-GT derived microvessels; experiment: SCID mice xenografting of HDMEC-GT in Matrigel with pro-angiogenic factors; human vessel density by human type IV collagen micromorphometry; type: in vivo, human cells in SCID mice; details: for human vessel density (human type IV collagen micromorphometry), result in words: VEGF 2 μg/ml or FGF-2 150 ng/ml in Matrigel with HDMEC-GT, two weeks after implantation, versus controls
Method: as §1
(§2) Matrigel implants were removed at 1, 2, 4 and 6 wk following xenografting, fixed in 10% buffered formalin overnight, paraffin-embedded and sectioned. H&E stained thin sections were prepared at Pan-insular Histopathology laboratory (Los Gatos, Calif.). For immunofluoresence, thin sections were deparaffinized and antigens retrieved in 10 mM citric acid (pH 6.0) by microwaving sections for 2×7 min. Sections were then incubated with anti-human type IV collagen IgG (Sigma, St. Louis, Mo.) primary antibody, followed by washing and Cy-3 conjugated secondary IgG according to standard protocols. […] For micromorphometry, 5 separate 20× fields were randomly selected per tissue section and the number of annular structures were counted and averaged. Unless specifically stated otherwise, 3 different sections were viewed per implant and replicate implants were grafted for each experimental condition (FIGS. 3 and 6).

[3] = test system: HDMEC-GT derived microvessels; experiment: Endostatin blocking experiments: HDMEC-GT co-implanted with endostatin cDNA-transfected HEK293 cells in Matrigel in SCID mice; type: in vivo, human cells in SCID mice; details: 1:10 ratio HEK293endo to HDMEC-GT, implants removed after one and two weeks, versus sham-transfected HEK293lacZ
Method: as §2
For digital analysis of eGFP fluorescence images we used a novel algorithm (Moss Filter™) to determine the total amount of vascularization in each implant section. This filter determines whether or not each pixel is part of the fluorescently-labeled vascular region. The filter converts the original (8-bit) digital image into a binary image. Pixel values equal to 1 indicate vascularization, whereas zero values indicate no vascularization. The total amount of vascularization in each implant section is obtained by summing all the values in the binary image.
Inhibition of in vivo vessel formation by local delivery of human endostatin was accomplished as follows: The plasmid pGT60hEndo, expressing recombinant human endostatin (InvivoGen, San Diego, Calif.), was stably transfected into human embryonic kidney (HEK293) cell line by calcium phosphate transfection (Invitrogen, Carlsbad, Calif.). […] HEK293 cells expressing lacZ served as a control for both Western blots and grafting experiments. The cell implantation procedure was the same as that described above except that 1×10^5 (or 10^4 or 10^3) transfected HEK were mixed with HDMEC-GT immediately prior to implantation. Grafts were examined at both one week and two after injection and sections were analyzed by both micromorphometry and eGFP as previously described.

[4] = listed as recombinant human endostatin

For “FGF-2: bovine FGF-2 (R&D systems), known pro-angiogenic factor”, the “host vessel invasion of Matrigel implants” value [1] was “stimulated; also recorded: marked host vessel invasion” and the “human vessel density (human type IV collagen micromorphometry), result in words” value [2] was “statistically increased human vessel density”.

With VEGF the “increased vessel density relative to controls” value ([2]; VEGF 2 μg/ml mixed with HDMEC-GT and Matrigel, two weeks after grafting, human type IV collagen micromorphometry) was 20-30% and the “human vessel density (human type IV collagen micromorphometry), result in words” value [2] was “increased vessel density; also recorded: did not demonstrate statistical significance”.

B1: endostatin: recombinant human endostatin, 22kD protein expressed by HEK293 cells stably transfected with plasmid pGT60hEndo (HEK293endo) (protein, UniProt P39060 1572-1754, looked up)
Endostatin: HSHRDFQPVLHLVALNSPLSGGMRGIRGADFQCFQQARAVGLAGTFRAFLSSRLQDLYSIVRRADRAAVPIVNLKDELLFPSWEALFSGSEGPLKPGARIFSFDGKDVLRHPTWPQKSVWHGSDPNGRRLTESYCETWRTEAPSATGQASSLLGGRLLGQSAASCHHAYIVLCIENSFMTASK
modifications: Endostatin
B1 was tested, and the “vessel density by micromorphometry (human type IV collagen staining)” value [3] was “statistically significant loss of vessel density”, the “vessel density by total fluorescence intensity extracted from binary images of eGFP (Moss Filter)” value [3] was “statistically significant loss of vessel density” and the “vessel density by micromorphometry (human type IV collagen staining)” value [3, 4] was “decreased microvessel formation”. For the same molecule, the “vessel density by total fluorescence intensity extracted from binary images of eGFP (Moss Filter)” value [3, 4] was “decreased microvessel formation”.
